Test results published in the NIST ThermoML archive (doi:10.1021/je700287u).
± gives the expanded uncertainty stated by the source.

Conditions: Liquid

CN(CCO)CCO [N-methyldiethanolamine]
Conditions	mass density [kg/m3]
313.09 K, 1007 kPa	1025.3 ± 0.6
313.09 K, 1989 kPa	1025.8 ± 0.6
313.09 K, 3027 kPa	1026.4 ± 0.6
313.09 K, 4003 kPa	1026.9 ± 0.6
313.09 K, 5004 kPa	1027.3 ± 0.6
313.09 K, 6004 kPa	1027.8 ± 0.6
313.09 K, 6996 kPa	1028.3 ± 0.6
313.09 K, 8006 kPa	1028.8 ± 0.6
313.09 K, 9066 kPa	1029.4 ± 0.6
313.09 K, 10021 kPa	1029.8 ± 0.6
313.09 K, 11008 kPa	1030.3 ± 0.6
313.09 K, 11995 kPa	1030.8 ± 0.6
313.09 K, 13024 kPa	1031.3 ± 0.7
313.09 K, 13984 kPa	1031.7 ± 0.7
313.09 K, 14994 kPa	1032.2 ± 0.7
313.09 K, 15992 kPa	1032.7 ± 0.7
313.09 K, 16977 kPa	1033.1 ± 0.7
313.09 K, 17994 kPa	1033.6 ± 0.7
313.09 K, 19000 kPa	1034 ± 0.7
313.09 K, 19985 kPa	1034.5 ± 0.7
323.01 K, 1003 kPa	1017.6 ± 0.6
323.01 K, 2020 kPa	1018.2 ± 0.6
323.01 K, 3006 kPa	1018.7 ± 0.6
323.01 K, 4031 kPa	1019.2 ± 0.6
323.01 K, 5002 kPa	1019.7 ± 0.6
323.01 K, 6020 kPa	1020.2 ± 0.6
323.01 K, 7003 kPa	1020.7 ± 0.6
323.01 K, 8000 kPa	1021.2 ± 0.6
323.01 K, 9006 kPa	1021.7 ± 0.6
323.01 K, 9991 kPa	1022.2 ± 0.6
323.01 K, 11005 kPa	1022.7 ± 0.6
323.01 K, 12000 kPa	1023.2 ± 0.6
323.01 K, 13010 kPa	1023.7 ± 0.6
323.01 K, 14000 kPa	1024.2 ± 0.6
323.01 K, 14987 kPa	1024.7 ± 0.6
323.01 K, 15987 kPa	1025.2 ± 0.6
323.01 K, 17012 kPa	1025.6 ± 0.6
323.01 K, 17991 kPa	1026.1 ± 0.7
323.01 K, 18995 kPa	1026.6 ± 0.7
323.01 K, 20012 kPa	1027.1 ± 0.7
332.95 K, 1045 kPa	1009.9 ± 0.6
332.95 K, 2032 kPa	1010.5 ± 0.6
332.95 K, 2995 kPa	1011 ± 0.6
332.95 K, 3991 kPa	1011.6 ± 0.6
332.95 K, 4983 kPa	1012.1 ± 0.6
332.95 K, 6016 kPa	1012.6 ± 0.6
332.95 K, 6998 kPa	1013.2 ± 0.6
332.95 K, 8009 kPa	1013.7 ± 0.6
332.95 K, 8993 kPa	1014.2 ± 0.6
332.95 K, 9991 kPa	1014.7 ± 0.6
332.95 K, 10985 kPa	1015.3 ± 0.6
332.95 K, 12014 kPa	1015.8 ± 0.6
332.95 K, 13079 kPa	1016.3 ± 0.6
332.95 K, 13992 kPa	1016.8 ± 0.6
332.95 K, 14999 kPa	1017.3 ± 0.6
332.95 K, 15997 kPa	1017.8 ± 0.6
332.95 K, 16989 kPa	1018.3 ± 0.6
332.95 K, 17997 kPa	1018.8 ± 0.6
332.95 K, 19011 kPa	1019.3 ± 0.6
332.95 K, 19963 kPa	1019.7 ± 0.6
342.78 K, 1004 kPa	1002 ± 0.5
342.78 K, 1998 kPa	1002.6 ± 0.5
342.78 K, 3050 kPa	1003.2 ± 0.5
342.78 K, 4015 kPa	1003.7 ± 0.5
342.78 K, 4998 kPa	1004.3 ± 0.5
342.78 K, 6020 kPa	1004.9 ± 0.5
342.78 K, 7011 kPa	1005.4 ± 0.6
342.78 K, 8034 kPa	1006 ± 0.6
342.78 K, 9001 kPa	1006.5 ± 0.6
342.78 K, 10000 kPa	1007.1 ± 0.6
342.78 K, 11000 kPa	1007.6 ± 0.6
342.78 K, 12012 kPa	1008.2 ± 0.6
342.78 K, 12947 kPa	1008.7 ± 0.6
342.78 K, 13991 kPa	1009.2 ± 0.6
342.78 K, 15001 kPa	1009.8 ± 0.6
342.78 K, 15987 kPa	1010.3 ± 0.6
342.78 K, 16998 kPa	1010.8 ± 0.6
342.78 K, 18005 kPa	1011.3 ± 0.6
342.78 K, 18981 kPa	1011.9 ± 0.6
342.78 K, 19980 kPa	1012.4 ± 0.6
352.68 K, 1013 kPa	994.4 ± 0.5
352.68 K, 2013 kPa	995 ± 0.5
352.68 K, 3004 kPa	995.6 ± 0.5
352.68 K, 3999 kPa	996.1 ± 0.5
352.68 K, 5003 kPa	996.8 ± 0.5
352.68 K, 6019 kPa	997.3 ± 0.5
352.68 K, 7005 kPa	997.8 ± 0.5
352.68 K, 8001 kPa	998.4 ± 0.5
352.68 K, 8984 kPa	999 ± 0.5
352.68 K, 9981 kPa	999.5 ± 0.5
352.68 K, 11029 kPa	1000.2 ± 0.5
352.68 K, 11980 kPa	1000.7 ± 0.5
352.68 K, 13051 kPa	1001.3 ± 0.5
352.68 K, 14000 kPa	1001.8 ± 0.5
352.68 K, 14988 kPa	1002.4 ± 0.5
352.68 K, 16018 kPa	1002.9 ± 0.5
352.68 K, 16978 kPa	1003.4 ± 0.6
352.68 K, 17977 kPa	1004 ± 0.6
352.68 K, 19003 kPa	1004.5 ± 0.6
352.68 K, 19990 kPa	1005.1 ± 0.6
362.52 K, 1005 kPa	986.7 ± 0.6
362.52 K, 2045 kPa	987.3 ± 0.6
362.52 K, 2982 kPa	987.8 ± 0.6
362.52 K, 4026 kPa	988.4 ± 0.6
362.52 K, 5007 kPa	988.9 ± 0.6
362.52 K, 6014 kPa	989.5 ± 0.6
362.52 K, 7015 kPa	990.2 ± 0.6
362.52 K, 7998 kPa	990.8 ± 0.6
362.52 K, 9003 kPa	991.3 ± 0.6
362.52 K, 9986 kPa	991.9 ± 0.6
362.52 K, 10996 kPa	992.5 ± 0.6
362.52 K, 12008 kPa	993.1 ± 0.6
362.52 K, 13004 kPa	993.7 ± 0.6
362.52 K, 13985 kPa	994.2 ± 0.6
362.52 K, 15010 kPa	994.8 ± 0.6
362.52 K, 15983 kPa	995.4 ± 0.6
362.52 K, 17007 kPa	995.7 ± 0.6
362.52 K, 17985 kPa	996.3 ± 0.6
362.52 K, 18994 kPa	996.9 ± 0.5
362.52 K, 19994 kPa	997.4 ± 0.5
